Like-named read-outs stand apart in the source and are kept apart here. Values belong to the molecule of their own block, whether it stands above or below them.
Target: T1, SIRT1 (Homo sapiens, UniProt Q96EB6)
T1 sequence (Q96EB6 1-747): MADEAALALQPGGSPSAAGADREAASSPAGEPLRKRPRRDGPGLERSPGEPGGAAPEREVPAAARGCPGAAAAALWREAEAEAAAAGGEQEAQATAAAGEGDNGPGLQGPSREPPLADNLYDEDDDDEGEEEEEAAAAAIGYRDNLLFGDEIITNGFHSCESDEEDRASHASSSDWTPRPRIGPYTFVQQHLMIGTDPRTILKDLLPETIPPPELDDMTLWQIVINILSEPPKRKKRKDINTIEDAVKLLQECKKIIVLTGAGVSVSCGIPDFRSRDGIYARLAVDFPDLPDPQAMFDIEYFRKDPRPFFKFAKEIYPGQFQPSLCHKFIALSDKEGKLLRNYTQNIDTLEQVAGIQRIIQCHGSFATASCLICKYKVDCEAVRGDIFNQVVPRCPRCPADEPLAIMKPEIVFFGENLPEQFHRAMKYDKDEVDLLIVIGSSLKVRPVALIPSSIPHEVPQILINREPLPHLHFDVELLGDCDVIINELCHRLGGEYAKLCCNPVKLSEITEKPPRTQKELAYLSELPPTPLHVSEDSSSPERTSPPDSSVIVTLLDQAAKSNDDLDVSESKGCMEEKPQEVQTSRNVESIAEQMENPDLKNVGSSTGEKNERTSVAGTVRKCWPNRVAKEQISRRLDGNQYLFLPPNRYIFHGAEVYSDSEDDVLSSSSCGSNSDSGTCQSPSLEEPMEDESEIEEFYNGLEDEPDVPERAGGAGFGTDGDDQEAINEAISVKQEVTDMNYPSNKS
Assay: Trp mass spectrometry assay of SIRT1 activation
Type: biochemical
Details: for TRP Activity (EC1.5): EC1.5 = concentration that results in 150% activation of SIRT1
Outline: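 N-terminal His-tagged human SIRT1 (10 nM, E. coli BL21(DE3)) with 0.5 μM Ac-RHKK(Ac)W-NH2 peptide and 120 μM βNAD+, 25 min at 25 °C in HEPES pH 7.5, formic acid stop. OAADPR or deacetylated peptide quantified by mass spectrometry; EC1.5 (50% activity increase over control) and Percent Maximum Activation reported.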

[1] = Trp peptide assay, maximum activity relative to control (100%), read-out: TRP MAX RESP (percent maximum fold activation)
[2] = Trp mass spectrometry assay, EC1.5 = concentration of test compound that results in 150% activation of SIRT1
[3] = concentration giving 150% activation of SIRT1, Trp peptide substrate
[4] = Trp mass spectrometry assay, concentration of test compound giving 150% activation of SIRT1

SMILES: O=C(Nc1cncc(OC[C@@H](O)CO)n1)N1c2nc(-c3cccc(C(F)(F)F)c3)ccc2N2CC[C@H]1C2 [(9S)-N-{6-[(2S)-2,3-dihydroxypropoxy]pyrazin-2-yl}-5-[3-(trifluoromethyl)phenyl]-1,6,8-triazatricyclo[7.2.1.0 {2,7}]dodeca-2(7),3,5-triene-8-carboxamide]
TRP Activity (EC1.5) (Trp peptide assay): A (A (EC1.5<1 μM))
Emax [1]: > 150%

SMILES: O=C(O)c1cc(NC(=S)NCc2ccc(NC(=O)N3c4nc(-c5cccc(C(F)(F)F)c5)ccc4N4CCC[C@H]3C4)cc2)ccc1-c1c2ccc(=O)cc-2oc2cc(O)ccc12 [Example 563]
Tryp AVG EC1.5 (μM) [2]: A (A (EC1.5<1 μM))

SMILES: CC(C)(C)OC(=O)NCC#Cc1ccc(NC(=O)N2c3nc(-c4cccc(C(F)(F)F)c4)ccc3N3CCC[C@H]2C3)cc1-c1cnco1 [Example 753]
Tryp AVG EC1.5 (μM) [3]: A (A (EC1.5<1 μM))

SMILES: CC(C)(C)OC(=O)NCC#Cc1cc(NC(=O)N2c3nc(-c4cccc(C(F)(F)F)c4)ccc3N3CCC[C@H]2C3)cc(-c2cnco2)c1 [Example 760]
Tryp AVG EC1.5 (μM) [3]: A (A (EC1.5<1 μM))

SMILES: O=C(NCCc1ccncc1)N1c2nc(-c3cccc(C(F)(F)F)c3)ccc2N2CC[C@H]1C2 [Example 613]
Tryp AVG EC1.5 (μM) [2]: B (B (EC1.5 1-25 μM))

SMILES: C#CCOc1cc(-c2ccc3c(n2)N(C(=O)Nc2cccc(C4(C(F)(F)F)N=N4)c2)[C@H]2CCN3C2)cc(C(F)(F)F)c1 [Example 800]
Tryp AVG EC1.5 (μM) [3]: C (C (EC1.5>25 μM))

SMILES: O=C(Nc1ccncn1)N1c2nc(-c3cncc(F)c3)ccc2N2CCC1CC2 [Example 573]
Tryp AVG EC1.5 (μM) [2]: C (C (EC1.5>25 μM))

SMILES: CCN(CC)C(=O)N1c2nc(-c3cccc(C(F)(F)F)c3)ccc2N2CC[C@H]1C2 [Example 52]
Tryp AVG EC1.5 (μM) (Trp peptide substrate, concentration giving 150% activation of SIRT1): C (C (EC1.5>25 μM))

SMILES: Cc1ccc(-c2ccc3c(n2)N(C(=O)Nc2nc4ccc(F)cc4s2)[C@H]2CCN3C2)cn1 [(9S)-N-(6-fluoro-1,3-benzothiazol-2-yl)-5-(6-methylpyridin-3-yl)-1,6,8-triazatricyclo[7.2.1.0 {2,7}]dodeca-2,4,6-triene-8-carboxamide]
TRP Activity (EC1.5) (Trp peptide assay): B (B (EC1.5 1-25 μM))
Emax (read-out: TRP MAX RESP (percent maximum fold activation)): > 150%

SMILES: O=C(Nc1ncccn1)N1c2nc(N3CCC[C@H](C(F)(F)F)C3)ccc2N2CCC[C@H]1C2 [(9S)-N-(pyrimidin-2-yl)-5-[(3S)-3-(trifluoromethyl)piperidin-1-yl]-1,6,8-triazatricyclo[7.3.1.0 {2,7}]trideca-2(7),3,5-triene-8-carboxamide]
TRP Activity (EC1.5) (Trp peptide assay): A (A (EC1.5<1 μM))
Emax [1]: > 150%

SMILES: NC(=O)c1ccc(NC(=O)N2c3nc(-c4cccc(C(F)(F)F)c4)ccc3N3CC[C@H]2C3)cc1 [Example 659]
Tryp AVG EC1.5 (μM) [3]: A (A (EC1.5<1 μM))

SMILES: CC(C)(C)OC(=O)N1CCCN(c2ccc3c(n2)N(C(=O)Nc2ccncn2)[C@H]2CCCN3C2)CC1 [Example 382]
Tryp AVG EC1.5 (μM) [4]: C (C (EC1.5>25 μM))

SMILES: O=C(Nc1ccccn1)N1c2nc(N3CCC[C@H](C(F)(F)F)C3)ccc2N2CCC[C@H]1C2 [drawing 1118, (9S)-N-(pyridin-2-yl)-5-[(3S)-3-(trifluoromethyl)piperidin-1-yl]-1,6,8-triazatricyclo[7.3.1.0 {2,7}]trideca-2(7),3,5-triene-8-carboxamide]
TRP Activity (EC1.5) (Trp peptide assay): A (A (EC1.5<1 μM))
TRP MAX RESP (percent maximum fold activation) (Trp peptide assay, maximum activity relative to control (100%)): A (A (Fold activation ≧150%))

SMILES: Cc1ccc(-c2cccc(NC(=O)N3c4nc(-c5cccc(C(F)(F)F)c5)ccc4N4CC[C@H]3C4)c2)cc1C [Example 619]
Tryp AVG EC1.5 (μM) [2]: C (C (EC1.5>25 μM))

SMILES: NCc1ncc(-c2cccc(NC(=O)N3c4nc(-c5cccc(C(F)(F)F)c5)ccc4N4CC[C@H]3C4)c2)o1 [Example 725]
Tryp AVG EC1.5 (μM) [3]: A (A (EC1.5<1 μM))

SMILES: O=C(Nc1cccc(-c2cnco2)c1)N1c2nc(-c3cncc(Cl)c3)ccc2N2CCC1CC2 [Example 575]
Tryp AVG EC1.5 (μM) [2]: A (A (EC1.5<1 μM))

Second part, the molecule after the results:

Tryp AVG EC1.5 (μM) [2]: A (A (EC1.5<1 μM))
SMILES: Cc1cc(-c2ccc3c(n2)N(C(=O)Nc2ccc4c(cnn4C)c2)[C@H]2CCN3C2)ccn1 [Example 502]

Tryp AVG EC1.5 (μM) [4]: A (A (EC1.5<1 μM))
SMILES: O=C(Nc1cccnn1)N1c2nc(-c3cncc(C(F)(F)F)c3)ccc2N2CCC[C@H]1C2 [Example 412]

Tryp AVG EC1.5 (μM) [3]: A (A (EC1.5<1 μM))
SMILES: Cc1cc(-c2ccc3c(n2)N(C(=O)Nc2cc(-c4cnco4)ccn2)[C@H]2CCN3C2)ccn1 [Example 746]

TRP Activity (EC1.5) (Trp peptide assay): B (B (EC1.5 1-25 μM))
Emax [1]: > 150%
SMILES: CNc1cc(-c2ccc3c(n2)N(C(=O)Nc2cnccn2)[C@H]2CCN3C2)ccn1 [(9S)-5-[2-(methylamino)pyridin-4-yl]-N-(pyrazin-2-yl)-1,6,8-triazatricyclo[7.2.1.0 {2,7}]dodeca-2(7),3,5-triene-8-carboxamide]

TRP Activity (EC1.5) (Trp peptide assay): A (A (EC1.5<1 μM))
Emax [1]: > 150%
SMILES: O=C(Nc1ccncn1)N1c2nc(-c3ccnc(C(F)(F)F)c3)ccc2N2CCC[C@H]1C2 [(9S)-N-(pyrimidin-4-yl)-5-[2-(trifluoromethyl)pyridin-4-yl]-1,6,8-triazatricyclo[7.3.1.0 {2,7}]trideca-2(7),3,5-triene-8-carboxamide]

Tryp AVG EC1.5 (μM) [2]: A (A (EC1.5<1 μM))
SMILES: Cc1cc(-c2ccc3c(n2)N(C(=O)Nc2cncc(C)n2)[C@H]2CCN3C2)ccn1 [Example 503]

Tryp AVG EC1.5 (μM) [4]: A (A (EC1.5<1 μM))
SMILES: O=C(Nc1cncc(F)c1)N1c2nc(-c3cncc(C(F)(F)F)c3)ccc2N2CCC[C@H]1C2 [Example 411]

Tryp AVG EC1.5 (μM) [2]: B (B (EC1.5 1-25 μM))
SMILES: COc1cc(NC(=O)N2c3nc(-c4cccc(N5CCOCC5)c4)ccc3N3CCC[C@H]2C3)ncn1 [Example 528]

TRP Activity (EC1.5) (Trp peptide assay): A (A (EC1.5<1 μM))
Emax [1]: > 150%
SMILES: CCc1cncc(NC(=O)N2c3nc(-c4ccnc(C)c4)ccc3N3CC[C@H]2C3)n1 [(9S)-N-(6-ethylpyrazin-2-yl)-5-(2-methylpyridin-4-yl)-1,6,8-triazatricyclo[7.2.1.0 {2,7}]dodeca-2(7),3,5-triene-8-carboxamide]

Tryp AVG EC1.5 (μM) [4]: A (A (EC1.5<1 μM))
SMILES: CS(=O)(=O)c1cncc(-c2ccc3c(n2)N(C(=O)Nc2cccnn2)[C@H]2CCCN3C2)c1 [Example 380]

Tryp AVG EC1.5 (μM) [4]: B (B (EC1.5 1-25 μM))
SMILES: O=C(Nc1cnccn1)N1c2nc(-c3cncc(F)c3)ccc2N2CC[C@H]1C2 [Example 400]

Tryp AVG EC1.5 (μM) [2]: B (B (EC1.5 1-25 μM))
SMILES: Cc1nc(NC(=O)N2c3nc(-c4cccnc4)ccc3N3CCC[C@H]2C3)sc1C [Example 466]

TRP Activity (EC1.5) (Trp peptide assay): B (B (EC1.5 1-25 μM))
Emax [1]: > 150%
SMILES: Cc1cc(-c2ccc3c(n2)N(C(=O)Nc2ccc4c(c2)OCCO4)[C@H]2CCN3C2)ccn1 [(9S)-N-(2,3-dihydro-1,4-benzodioxin-6-yl)-5-(2-methylpyridin-4-yl)-1,6,8-triazatricyclo[7.2.1.0 {2,7}]dodeca-2(7),3,5-triene-8-carboxamide]

TRP Activity (EC1.5) (Trp peptide assay): A (A (EC1.5<1 μM))
Emax [1]: > 150%
SMILES: COc1cc(-c2ccc3c(n2)N(C(=O)Nc2cnccn2)[C@H]2CCN3C2)cc(C)n1 [(9S)-5-(2-methoxy-6-methylpyridin-4-yl)-N-(pyrazin-2-yl)-1,6,8-triazatricyclo[7.2.1.0 {2,7}]dodeca-2(7),3,5-triene-8-carboxamide]

Tryp AVG EC1.5 (μM) [2]: A (A (EC1.5<1 μM))
Emax (Trp mass spectrometry assay, percent maximum fold activation of SIRT1, read-out: Tryp % Fold Act): > 150%
SMILES: Cc1cc(-c2ccc3c(n2)N(C(=O)Nc2ccc4nn(C)cc4c2)[C@H]2CCN3C2)ccn1 [Example 483]

Tryp AVG EC1.5 (μM) [4]: B (B (EC1.5 1-25 μM))
SMILES: Cn1cc(-c2ccc3c(n2)N(C(=O)Nc2cccnc2)[C@H]2CCN3C2)cn1 [Example 395]

TRP Activity (EC1.5) (Trp peptide assay): C (C (EC1.5>25 μM))
Emax [1]: < 150%
SMILES: Cc1ccc(-c2ccc3c(n2)N(C(=O)NC2CCOC2)[C@H]2CCN3C2)cn1 (stereo partly drawn) [(9S)-5-(6-methylpyridin-3-yl)-N-(oxolan-3-yl)-1,6,8-triazatricyclo[7.2.1.0 {2,7}]dodeca-2,4,6-triene-8-carboxamide]

TRP Activity (EC1.5) (Trp peptide assay): B (B (EC1.5 1-25 μM))
Emax [1]: > 150%
SMILES: C[C@@H]1COCCN1c1ccc2c(n1)N(C(=O)Nc1cccnc1)[C@H]1CCN2C1 [(9S)-5-[(3R)-3-methylmorpholin-4-yl]-N-(pyridin-3-yl)-1,6,8-triazatricyclo[7.2.1.0 {2,7}]dodeca-2(7),3,5-triene-8-carboxamide]

TRP Activity (EC1.5) (Trp peptide assay): B (B (EC1.5 1-25 μM))
Emax [1]: > 150%
SMILES: CN(C)c1cccc(-c2ccc3c(n2)N(C(=O)Nc2cnccn2)[C@H]2CCN3C2)c1 [(9S)-5-[3-(dimethylamino)phenyl]-N-(pyrazin-2-yl)-1,6,8-triazatricyclo[7.2.1.0 {2,7}]dodeca-2(7),3,5-triene-8-carboxamide]

Reference: patent US9834558B2, “Substituted bridged urea analogs as sirtuin modulators” (GLAXOSMITHKLINE LLC, priority 2013, dated 2017)
